Laboratory results published in patent US9510598B2, “Nitrogen-containing heterocyclic compounds for plant disease control” (BAYER CROPSCIENCE AG, priority 2012, dated 2016).
Values joined by “and” are separate entries in the source; they are usually repeats but may differ in a detail not shown here. Equal entries are not always repeated. Where two headings read alike, the source gives them in different places.

Assays:
Septoria tritici = test: In vivo preventive test on Septoria tritici (leaf spot on wheat); details: 500 ppm; wheat plants sprayed 24 hours before contamination; grading 21 to 28 days after contamination vs control plants
In short: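 Scipion wheat at 1-leaf stage sprayed with compound, controls receiving acetone/tween/DMSO/water vehicle; 24 h later leaves inoculated with Septoria tritici spores (500 000 spores per ml). Efficacy (%) graded versus control plants 21 to 28 days after contamination.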

Sphaerotheca fuliginea = test: In vivo preventive test on Sphaerotheca fuliginea (powdery mildew on cucurbits); details: 500 ppm; gherkin plants sprayed 24 hours before contamination; grading 12 days after contamination vs control plants
Description: Gherkin plants (“Vert petit de Paris” variety), sown in starter cups on a 50/50 peat soil-pozzolana substrate and grown at 24° C., are treated at the Z11 cotyledon stage by spraying with the active ingredient prepared as described above. Plants, used as controls, are treated with the mixture of acetone/tween/DMSO/water not containing the active material. After 24 hours, the plants are contaminated by spraying the cotyledons with an aqueous suspension of Sphaerotheca fuliginea spores (100 000 spores per ml). The spores are collected from infected plants. […] Grading (% of efficacy) is carried out 12 days after the contamination, in comparison with the control plants.

[1] = assay type: physicochemical
Botrytis cinerea = test: In vivo preventive test on Botrytis cinerea (grey mould); details: 500 ppm; gherkin plants sprayed 24 hours before contamination; grading 4-5 days after contamination vs control plants
Description: Gherkin plants (“Vert petit de Paris” variety), sown in starter cups on a 50/50 peat soil-pozzolana substrate and grown at 24° C., are treated at the Z11 cotyledon stage by spraying with the active ingredient prepared as described above. Plants, used as controls, are treated with the mixture of acetone/tween/DMSO/water not containing the active material. After 24 hours, the plants are contaminated by spraying the cotyledons with an aqueous suspension of cryopreserved Botrytis cinerea spores (50 000 spores per ml). The spores are suspended in a nutrient solution composed of 10 g/L of PDB, 50 g/L of D-Fructose, 2 g/L of NH4NO3 and 1 g/L of KH2PO4. The contaminated gherkin plants are incubated at 17° C. and at 80% relative humidity. Grading (% of efficacy) is carried out 4-5 days after the contamination, in comparison with the control plants.

[2] = method [a]: HPLC/LC-MS on reversed phase at pH 2.7, 0.1% formic acid in water / acetonitrile, gradient 10% to 95% acetonitrile
[3] = HPLC on reversed phase columns, method [a]: pH 2.7, 0.1% formic acid in water / acetonitrile, linear gradient 10% to 95% acetonitrile
[4] = method [a]: HPLC/LC-MS on reversed phase at pH 2.7, 0.1% formic acid in water / acetonitrile, linear gradient 10% to 95% acetonitrile

SMILES	% of efficacy (protection) (Septoria tritici)	% of efficacy (protection) (Sphaerotheca fuliginea)	log P [1, 3]	also measured
CC1COCCC1NC(=O)C1(C)CC(c2ccc3ncc(Br)cc3c2)=NO1 (mixture of isomers) [compound 309]	86%	100%		
CCOCC(C)NC(=O)C1(C)CC(c2ccc3ncc(Br)cc3c2)=NO1 (mixture of isomers) [compound 374]	100%	100%		
C#Cc1cnc2ccc(C3=NOC(C)(C(=O)NC(C)CC(=O)OCC)C3)cc2c1 (mixture of isomers) [compound 453]		88%		log P [1, 2]: 2.57[a]
CCOC(=O)CC(C)NC(=O)C1(C)CC(c2ccc3ncc(Br)cc3c2)=NO1 (mixture of isomers) [compound 505]		98%		% of efficacy (protection) (Botrytis cinerea): 75%
COCC(C)NC(=O)C1(C)CC(c2ccc3ncc(Br)cc3c2)=NO1 (racemic) [compound 368]	100%	100%		log P [1, 2]: 2.54[a]
CCC(COC)NC(=O)C1(C)CC(c2ccc3ncc(Br)cc3c2)=NO1 (racemic) [compound 377]	100%	98%		log P [1, 2]: 2.88[a]
C#Cc1cnc2ccc(C3=NOC(CC)(C(=O)NC4CC4)C3)cc2c1 (racemic) [compound 439]	93%	78%		log P [1, 2]: 2.44[a]
CCOCCCNC(=O)C1(C)CC(c2cc(C)c3ncc(Br)cc3c2)=NO1 (racemic) [compound 547]		100%	3.48[a]	% of efficacy (protection) (Botrytis cinerea): 100%
COC1(C(=O)NC(C)C)CC(c2ccc3ncc(Br)cc3c2)=NO1 (single isomer, unassigned) [compound 284]	100%	100%	2.58[a]	
CC(C)NC(=O)C1(C)CC(c2ccc3ncc(C#C[Si](C)(C)C)cc3c2)=NO1 (stereo not drawn) [Compound No. 150]	100%	95%		chromatographic logP ([1]; HPLC reversed phase, pH 2.7, 0.1% formic acid in water / acetonitrile, linear gradient 10% to 95% acetonitrile, calibration with alkan-2-ones, read-out: log P (HCOOH)): 4.41
CCn1cc(CNC(=O)C2(C(F)(F)F)CC(c3cc4cc(Br)cnc4c(F)c3F)=NO2)c(C)n1 (stereo not drawn) [compound 6]	71%	89%		Log P ([1]; method [a]: HPLC/LC-MS on reversed phase at pH 2.7, 0.1% formic acid in water and acetonitrile, linear gradient 10% to 95% acetonitrile): 3.23^[a]
CCn1cc(CNC(=O)C2(CF)CC(c3ccc4ncc(Br)cc4c3)=NO2)c(C)n1 (stereo not drawn) [compound 75]		94% and 98%		log P [1, 4]: 2.31^[a]; % of efficacy (protection) (Botrytis cinerea): 93%
CSc1cnc2ccc(C3=NOC(C)(C(=O)NC(C)C)C3)cc2c1 (stereo not drawn) [compound 80]		93%		log P [1, 4]: 2.44^[a]
Cn1cc(CNC(=O)C2(C)CC(c3ccc4ncc(Br)cc4c3)=NO2)cn1 (stereo not drawn) [compound 176]	93%	83%		log P [1, 4]: 2.07^[a]
CCn1cc(CNC(=O)C23CCCC2C(c2ccc4ncc(Br)cc4c2)=NO3)c(C)n1 (stereo not drawn) [compound 261]	97%	85%	2.75^[a]	
CCSc1cnc2ccc(C3=NOC(C)(C(=O)NC(C)C)C3)cc2c1 (stereo not drawn) [compound 277]		71%	2.81[a]	

SMILES	% of efficacy (protection) (Septoria tritici)	% of efficacy (protection) (Sphaerotheca fuliginea)	log P [1, 3]	also measured
C#Cc1cnc2ccc(C3=NOC(C)(C(=O)NC4CC4)C3)cc2c1 (stereo not drawn) [compound 314]	100%	81%	2.13[a]	
CC1(C(=O)NCCCOCC(F)(F)F)CC(c2ccc3ncc(Br)cc3c2)=NO1 (stereo not drawn) [compound 323]	78%	81%	3.11[a]	
C#Cc1cnc2ccc(C3=NOC(C)(C(=O)NCCCOCC(F)(F)F)C3)cc2c1 (stereo not drawn) [compound 326]	98%	88%	2.77[a]	
CC(NC(=O)C1(C)CC(c2ccc3ncc(Br)cc3c2)=NO1)C1CC1 (stereo not drawn) [compound 332]	100%	98%	3.17[a]	
C#Cc1cnc2ccc(C3=NOC(C)(C(=O)NC(C)c4nccs4)C3)cc2c1 (stereo not drawn) [compound 334]	100%	94%	2.28[a]	
C#Cc1cnc2ccc(C3=NOC(C)(C(=O)NC(C)c4ccsc4)C3)cc2c1 (stereo not drawn) [compound 336]	100%	81%	2.96[a]	
CC(NC(=O)C1(C)CC(c2ccc3ncc(Br)cc3c2)=NO1)c1ccncc1 (stereo not drawn) [compound 337]	78%	88%	1.44[a]	
C#Cc1cnc2ccc(C3=NOC(C)(C(=O)NC(C)C4CCOC4)C3)cc2c1 (stereo not drawn) [compound 341]	100%	98%	2.18[a]	
C#Cc1cnc2ccc(C3=NOC(C)(C(=O)NC(C)C(F)(F)F)C3)cc2c1 (stereo not drawn) [compound 343]	100%	100%	2.77[a]	
CC(NC(=O)C1(C)CC(c2ccc3ncc(Br)cc3c2)=NO1)C(F)(F)F (stereo not drawn) [compound 345]	100%	94%	3.13[a]	
C#Cc1cnc2ccc(C3=NOC(OC)(C(=O)NCCCOCC)C3)cc2c1 (stereo not drawn) [compound 408]	100%	100%		log P [1, 2]: 2.39[a]
C#CCONC(=O)C1(C)CC(c2ccc3ncc(C#C)cc3c2)=NO1 (stereo not drawn) [compound 503]	71%	78%		log P [1, 2]: 1.95[a]
CCn1cc(CNC(=O)C2(OC)CC(c3cc(Cl)c4ncc(Br)cc4c3)=NO2)c(C)n1 (stereo not drawn) [compound 566]	100%	89%	2.78[a]	
CCOCCCNC(=O)C1(C(F)F)CC(c2ccc3ncc(I)cc3c2)=NO1 (stereo not drawn) [compound 619]	71%		3.19[a]	% of efficacy (protection) (Botrytis cinerea): 73%
C=CC1(C(=O)NC(C)C)CC(c2ccc3ncc(I)cc3c2)=NO1 (stereo not drawn) [compound 731]	100%	75%		log P ([1]; HPLC on reversed phase columns, method [a]: pH 2.7, 0.1% formic acid in water and acetonitrile, linear gradient 10% to 95% acetonitrile): 3.21[a]
